Patent US20260140098A1, “METHOD FOR TREATING PLASMA SAMPLE CONTAINING (7aS,2'S)-2-OXO-CLOPIDOGREL AND METHOD FOR DETERMINING THE SAME” (CHENGDU SHIBEIKANG BIOMEDICAL TECHNOLOGY CO., LTD., priority 2021, published 2026)

Assay: Stability of (7aS,2′S)-2-oxo-clopidogrel in plasma, screening of TCEP dosage (Example 4)
Type: in vitro ADME
Protocol: S2. Plasma sample pre-treatment: taking 100 μl of the plasma, adding 5 μl of an internal standard working solution and 300 μl of acetonitrile respectively; after vortex mixing, centrifuging at 2-8° C. and 10,000 r/min for 10 min, and collecting the supernatant for later use.
S3. LC-MS/MS analysis: injecting 10 μl of the supernatant prepared from step S2 for determination, where the liquid chromatography conditions are: • the chromatographic column is Kinetex® 1.7 μm C18 100 A 100×2.1 mm; the column temperature is 40° C.; the mobile phase is acetonitrile-0.2% aqueous formic acid solution with a flow rate of 0.2 ml/min; and a gradient elution is carried out as specified in the table below:
ESI ion source, positive ion detection in multiple reaction monitoring mode (MRM); the quantitatively analyzed ions (7aS,2′S)-2-oxo-clopidogrel: m/z 338.100→155.000, IS: m/z 341.100→158.000, a capillary voltage of 4.0 KV, a cone voltage of 25 V, a desolvation gas temperature of 400° C. and a source temperature of 150° C. The optimal collision energy is 20 eV.
Blank plasma was taken and TCEP was added to prepare plasma containing TCEP at different concentrations (10, 50, 100 mg/ml). Subsequently, standard series solution of (7aS,2′S)-2-oxo-clopidogrel was added separately to prepare quality control samples with two concentrations of (7aS,2′S)-2-oxo-clopidogrel (0.1 and 12.0 ng/ml), 3 samples for each concentration. They were placed at room temperature and on ice, respectively, and the plasma samples at different placing time points were taken to examine the stability by pre-treating the plasma samples according to the method of S2 of Example 1, followed by LC/MS/MS determination according to the method of S3.

## COC(=O)[C@H](c1ccccc1Cl)N1CC[C@@H]2SC(=O)C=C2C1 [(7aS,2′S)-2-oxo-clopidogrel, methyl(S)-2-(2-chlorophenyl)-2-((S)-2-oxo-2,6,7,7a-tetrahydrothieno[3,2-c]pyridin-5 (4H)-yl)acetate]
No TCEP, theoretical 0.1 ng/mL, on ice, 0 min
  Measured concentration: 0.0965 ng/mL
No TCEP, theoretical 0.1 ng/mL, on ice, 30 min
  Measured concentration: 0.0842 ng/mL
No TCEP, theoretical 0.1 ng/mL, on ice, 60 min
  Measured concentration: 0.0763 ng/mL
No TCEP, theoretical 0.1 ng/mL, on ice, 120 min
  Measured concentration: 0.0622 ng/mL
No TCEP, theoretical 0.1 ng/mL, room temperature, 0 min
  Measured concentration: 0.0965 ng/mL
No TCEP, theoretical 0.1 ng/mL, room temperature, 30 min
  Measured concentration: 0.0782 ng/mL
No TCEP, theoretical 0.1 ng/mL, room temperature, 60 min
  Measured concentration: 0.0633 ng/mL
No TCEP, theoretical 0.1 ng/mL, room temperature, 120 min
  Measured concentration: 0.0529 ng/mL
No TCEP, theoretical 12.0 ng/mL, on ice, 0 min
  Measured concentration: 12.3 ng/mL
No TCEP, theoretical 12.0 ng/mL, on ice, 30 min
  Measured concentration: 10.3 ng/mL
No TCEP, theoretical 12.0 ng/mL, on ice, 60 min
  Measured concentration: 9.65 ng/mL
No TCEP, theoretical 12.0 ng/mL, on ice, 120 min
  Measured concentration: 7.23 ng/mL
No TCEP, theoretical 12.0 ng/mL, room temperature, 0 min
  Measured concentration: 12.3 ng/mL
No TCEP, theoretical 12.0 ng/mL, room temperature, 30 min
  Measured concentration: 9.45 ng/mL
No TCEP, theoretical 12.0 ng/mL, room temperature, 60 min
  Measured concentration: 8.38 ng/mL
No TCEP, theoretical 12.0 ng/mL, room temperature, 120 min
  Measured concentration: 6.57 ng/mL
TCEP 10 mg/ml, theoretical 0.1 ng/mL, on ice, 0 min
  Measured concentration: 0.0965 ng/mL
TCEP 10 mg/ml, theoretical 0.1 ng/mL, on ice, 30 min
  Measured concentration: 0.0942 ng/mL
TCEP 10 mg/ml, theoretical 0.1 ng/mL, on ice, 60 min
  Measured concentration: 0.0863 ng/mL
TCEP 10 mg/ml, theoretical 0.1 ng/mL, on ice, 120 min
  Measured concentration: 0.0782 ng/mL
TCEP 10 mg/ml, theoretical 0.1 ng/mL, room temperature, 0 min
  Measured concentration: 0.0965 ng/mL
TCEP 10 mg/ml, theoretical 0.1 ng/mL, room temperature, 30 min
  Measured concentration: 0.0952 ng/mL
TCEP 10 mg/ml, theoretical 0.1 ng/mL, room temperature, 60 min
  Measured concentration: 0.0833 ng/mL
TCEP 10 mg/ml, theoretical 0.1 ng/mL, room temperature, 120 min
  Measured concentration: 0.0729 ng/mL
TCEP 10 mg/ml, theoretical 12.0 ng/mL, on ice, 0 min
  Measured concentration: 12.3 ng/mL
TCEP 10 mg/ml, theoretical 12.0 ng/mL, on ice, 30 min
  Measured concentration: 11.9 ng/mL
TCEP 10 mg/ml, theoretical 12.0 ng/mL, on ice, 60 min
  Measured concentration: 10.65 ng/mL
TCEP 10 mg/ml, theoretical 12.0 ng/mL, on ice, 120 min
  Measured concentration: 9.92 ng/mL
TCEP 10 mg/ml, theoretical 12.0 ng/mL, room temperature, 0 min
  Measured concentration: 12.3 ng/mL
TCEP 10 mg/ml, theoretical 12.0 ng/mL, room temperature, 30 min
  Measured concentration: 11.7 ng/mL
TCEP 10 mg/ml, theoretical 12.0 ng/mL, room temperature, 60 min
  Measured concentration: 10.4 ng/mL
TCEP 10 mg/ml, theoretical 12.0 ng/mL, room temperature, 120 min
  Measured concentration: 9.45 ng/mL
TCEP 50 mg/ml, theoretical 0.1 ng/mL, on ice, 0 min
  Measured concentration: 0.0965 ng/mL
TCEP 50 mg/ml, theoretical 0.1 ng/mL, on ice, 30 min
  Measured concentration: 0.0956 ng/mL
TCEP 50 mg/ml, theoretical 0.1 ng/mL, on ice, 60 min
  Measured concentration: 0.0932 ng/mL
TCEP 50 mg/ml, theoretical 0.1 ng/mL, on ice, 120 min
  Measured concentration: 0.0911 ng/mL
TCEP 50 mg/ml, theoretical 0.1 ng/mL, room temperature, 0 min
  Measured concentration: 0.0965 ng/mL
TCEP 50 mg/ml, theoretical 0.1 ng/mL, room temperature, 30 min
  Measured concentration: 0.0935 ng/mL
TCEP 50 mg/ml, theoretical 0.1 ng/mL, room temperature, 60 min
  Measured concentration: 0.0914 ng/mL
TCEP 50 mg/ml, theoretical 0.1 ng/mL, room temperature, 120 min
  Measured concentration: 0.0895 ng/mL
TCEP 50 mg/ml, theoretical 12.0 ng/mL, on ice, 0 min
  Measured concentration: 12.3 ng/mL
TCEP 50 mg/ml, theoretical 12.0 ng/mL, on ice, 30 min
  Measured concentration: 12.2 ng/mL
TCEP 50 mg/ml, theoretical 12.0 ng/mL, on ice, 60 min
  Measured concentration: 11.9 ng/mL
TCEP 50 mg/ml, theoretical 12.0 ng/mL, on ice, 120 min
  Measured concentration: 11.4 ng/mL
TCEP 50 mg/ml, theoretical 12.0 ng/mL, room temperature, 0 min
  Measured concentration: 12.3 ng/mL
TCEP 50 mg/ml, theoretical 12.0 ng/mL, room temperature, 30 min
  Measured concentration: 12.1 ng/mL
TCEP 50 mg/ml, theoretical 12.0 ng/mL, room temperature, 60 min
  Measured concentration: 11.9 ng/mL
TCEP 50 mg/ml, theoretical 12.0 ng/mL, room temperature, 120 min
  Measured concentration: 10.6 ng/mL
TCEP 100 mg/ml, theoretical 0.1 ng/mL, on ice, 0 min
  Measured concentration: 0.0965 ng/mL
TCEP 100 mg/ml, theoretical 0.1 ng/mL, on ice, 30 min
  Measured concentration: 0.0958 ng/mL
TCEP 100 mg/ml, theoretical 0.1 ng/mL, on ice, 60 min
  Measured concentration: 0.0942 ng/mL
TCEP 100 mg/ml, theoretical 0.1 ng/mL, on ice, 120 min
  Measured concentration: 0.0951 ng/mL
TCEP 100 mg/ml, theoretical 0.1 ng/mL, room temperature, 0 min
  Measured concentration: 0.0965 ng/mL
TCEP 100 mg/ml, theoretical 0.1 ng/mL, room temperature, 30 min
  Measured concentration: 0.0955 ng/mL
TCEP 100 mg/ml, theoretical 0.1 ng/mL, room temperature, 60 min
  Measured concentration: 0.0934 ng/mL
TCEP 100 mg/ml, theoretical 0.1 ng/mL, room temperature, 120 min
  Measured concentration: 0.0915 ng/mL
TCEP 100 mg/ml, theoretical 12.0 ng/mL, on ice, 0 min
  Measured concentration: 12.3 ng/mL
TCEP 100 mg/ml, theoretical 12.0 ng/mL, on ice, 30 min
  Measured concentration: 12.4 ng/mL
TCEP 100 mg/ml, theoretical 12.0 ng/mL, on ice, 60 min
  Measured concentration: 12.1 ng/mL
TCEP 100 mg/ml, theoretical 12.0 ng/mL, on ice, 120 min
  Measured concentration: 11.8 ng/mL
TCEP 100 mg/ml, theoretical 12.0 ng/mL, room temperature, 0 min
  Measured concentration: 12.3 ng/mL
TCEP 100 mg/ml, theoretical 12.0 ng/mL, room temperature, 30 min
  Measured concentration: 12.2 ng/mL
TCEP 100 mg/ml, theoretical 12.0 ng/mL, room temperature, 60 min
  Measured concentration: 11.9 ng/mL
TCEP 100 mg/ml, theoretical 12.0 ng/mL, room temperature, 120 min
  Measured concentration: 11.6 ng/mL
TCEP added at a concentration of 50 mg/ml or more
  Stability in plasma (in words): good stability
